Reference: patent US8629147B2, “Heterocyclic compounds useful in the treatment of neoplastic diseases, inflammatory disorders and immunomodulatory disorders” (ChemBridge Corporation, priority 2005, dated 2014)

Assays:
[1] = target: T1, human IGF1R kinase domain (Homo sapiens, UniProt P08069); assay: IGF1R tyrosine phosphorylation inhibition, Alphascreen phosphotyrosine PT66 assay; format: biochemical; conditions: recombinant kinase domain, 1 hour co-incubation, 20 to 0.1 μM
T1 construct: human IGF1R precursor protein corresponding to the amino acids positions 974 through 1293; 6xHis; made in house; host or cells: SF9 insect cells, recombinant baculovirus (Bac-to-Bac System)
T1 sequence (P08069 974-1293): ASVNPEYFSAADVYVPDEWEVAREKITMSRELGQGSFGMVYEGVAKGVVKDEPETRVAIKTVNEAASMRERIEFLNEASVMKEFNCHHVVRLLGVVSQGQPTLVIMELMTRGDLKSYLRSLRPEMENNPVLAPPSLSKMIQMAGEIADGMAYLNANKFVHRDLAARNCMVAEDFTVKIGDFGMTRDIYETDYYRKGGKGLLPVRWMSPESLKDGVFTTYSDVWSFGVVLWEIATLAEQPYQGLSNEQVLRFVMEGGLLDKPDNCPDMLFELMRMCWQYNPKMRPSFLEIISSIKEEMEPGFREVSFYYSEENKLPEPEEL
Protocol: Inhibition of IGF1R tyrosine phosphorylation was measured in the Alphascreen phosphotyrosine PT66 assay kit (Perkin Elmer Life sciences, Catalog number 6760602) according to the manufacturer's instructions. As a source of enzymatically active IGF1r kinase for this assay, SF9 insect cells were infected with recombinant baculovirus (Bac-to-Bac System, Invitrogen, Carlsbad, Calif.) encoding 6×His-tagged kinase domain portion of human IGF1R precursor protein corresponding to the amino acids positions 974 through 1293 (Abbott et al., 1992, J. Biol. Chem. 267:10759-10763) and recombinant kinase protein was purified to homogeneity using two-step chromatography on immobilized Ni^2+ resin (Ni-NTA) and ion-exchange Q-Sepharose column. Biotinylated poly glu-tyr 4:1 (CIS bio-international, catalog number 61GT0BLA) was used for the kinase substrate. Compounds were serially diluted to give a concentration range from 20 to 0.1 μM and co-incubated with IGF1r kinase, biotinylated peptide substrate and alphascreen components for 1 hour and then read in a Perkin-Elmer alphafusion plate reader. A plot of counts per minute versus log concentration of compounds was fitted to a sigmoidal dose response curve using Graphpad Prism software to generate IC50 values (see FIG. 1 for an example).

[2] = test system: MCF7 human breast tumor cells; assay: CellTiter-Glo luminescent cell viability assay, MCF7; format: cell-based; conditions: 48 hours, 20 to 0.1 μM
Protocol: (§1) Cell viability of either MCF7 human breast tumor cells (American Type Culture Collection catalog #HTB 22) or NCI-H929 human plasmacytoma cells (ATCC catalog #CRL-9068) was assessed using the Promega CellTiter-Glo luminescent cell viability assay according to manufacturer's instructions. In brief, cells were plated at 10,000 cells per well in a clear bottom white 96 well microtiter plate (Costar catalog #3604) in 100 μL of cell growth medium. Compounds were then added to the cells to give final concentrations of compound ranging from 20 to 0.1 μM. Cells were incubated 48 hours after which 100 μL per well of celltiter-glo reagent was added and luminescence was measured in a BMG polarstar plate luminometer. A plot of counts per minute versus log concentration of compounds was fitted to a sigmoidal dose response curve using Graphpad Prism software to generate IC50 values.

[3] = test system: NCI-H929 human plasmacytoma cells; assay: CellTiter-Glo luminescent cell viability assay, NCI-H929; format: cell-based; conditions: 48 hours, 20 to 0.1 μM
Protocol: as §1

Q: How did the IC50 [1] turn out when `CN1CCN(Cc2cccc(NC(=O)c3cc(N)n(-c4ncc5c(n4)-c4ccccc4CC5)n3)c2)CC1` was run?
A: ≤ 5 µM

Q: What about the IC50 [2] of the same molecule?
A: 10 to 15 µM

Q: What about the IC50 [3] of the same molecule?
A: 10 to 15 µM

Q: Which IC50 [1] does the source give for `COc1ncccc1-c1ccc(O)c(-c2nc3ccc(C(=O)Nc4ccc(CCN5CCCC6(CCCN(C)C6)C5)cc4)cc3[nH]2)c1` (centres unmarked) here?
A: ≤ 5 µM

Q: What about the IC50 [2] of the same molecule?
A: 5 to 10 µM

Q: What about the IC50 [3] of the same molecule?
A: ≤ 5 µM

Q: With `COc1ccc2c(c1)CCc1cnc(-n3cc(C(=O)NCCc4c[nH]c5ccccc45)c(N)n3)nc1-2` as the molecule, how does the IC50 [1] read?
A: ≤ 5 µM

Q: And the IC50 [2]?
A: 5 to 10 µM

Q: What about the IC50 [3] of the same molecule?
A: > 25 µM

Q: Which IC50 [1] does the source give for `CN1CCN(CCc2ccc(NC(=O)c3cn(-c4nccc(-c5ccc(N(C)C)cc5)n4)nc3N)cc2)CC1` here?
A: ≤ 5 µM

Q: What about the IC50 [2] of the same molecule?
A: 10 to 15 µM

Q: And the IC50 [3]?
A: 5 to 10 µM

Q: For `CN1CCN(c2ccc3nc(-c4nc5ccccc5[nH]4)[nH]c3c2)CC1`, which IC50 [1] is on record?
A: ≤ 5 µM

Q: And the IC50 [2]?
A: 10 to 15 µM

Q: What about the IC50 [3] of the same molecule?
A: 10 to 15 µM

Q: Which IC50 [1] does the source give for `CN1CCN(c2ccc3nc(-c4cc(-c5cccnc5)ccc4O)[nH]c3c2)CC1` here?
A: ≤ 5 µM

Q: And the IC50 [2]?
A: 10 to 15 µM

Q: And the IC50 [3]?
A: 10 to 15 µM

Q: How did the IC50 [1] turn out when `CN1CCN(c2ccc3nc(-c4ccc(OCc5ccccc5)cc4O)[nH]c3c2)CC1` was run?
A: ≤ 5 µM

Q: And the IC50 [2]?
A: 10 to 15 µM

Q: And the IC50 [3]?
A: > 25 µM

Q: What does the source list for `CN1CCN(CCc2ccc(NC(=O)c3cn(-c4ncc5c(n4)-c4cc(Cl)ccc4OC5)nc3N)cc2)CC1`?
A: IC50 [1]: ≤ 5 µM; IC50 [2]: 10 to 15 µM; IC50 [3]: 5 to 10 µM

Q: Which results are given for `COc1ccc2c(c1)CCc1cnc(-n3cc(C(=O)NC4CCN(CCCc5ccncc5)CC4)c(N)n3)nc1-2`?
A: IC50 [1]: ≤ 5 µM; IC50 [2]: 5 to 10 µM; IC50 [3]: ≤ 5 µM

Q: What does the source list for `CN1CCN(CCc2ccc(NC(=O)c3ccc4nc(-c5nc6ccccc6[nH]5)[nH]c4c3)cc2)CC1`?
A: IC50 [1]: ≤ 5 µM; IC50 [2]: > 25 µM; IC50 [3]: 5 to 10 µM

Q: How did the IC50 [1] turn out when `CCN1CCC2(CCN(CCc3ccc(NC(=O)c4ccc5[nH]c(-c6cc(-c7cccnc7OC)ccc6O)nc5c4)cc3)C2)C1` (centres unmarked) was run?
A: ≤ 5 µM

Q: And the IC50 [2]?
A: 10 to 15 µM

Q: And the IC50 [3]?
A: ≤ 5 µM

Q: For `COc1ccc2c(c1)CCc1cnc(-n3cc(-c4nc5cc(N6CCN(C)CC6)ccc5[nH]4)c(N)n3)nc1-2`, which IC50 [1] is on record?
A: ≤ 5 µM

Q: What about the IC50 [2] of the same molecule?
A: 10 to 15 µM

Q: What about the IC50 [3] of the same molecule?
A: 5 to 10 µM

Q: Which IC50 [1] does the source give for `COc1ncccc1-c1ccc2[nH]c(-c3nc4cc(N5CCN(C)CC5)ccc4[nH]3)nc2c1` here?
A: ≤ 5 µM

Q: And the IC50 [2]?
A: 10 to 15 µM

Q: And the IC50 [3]?
A: ≤ 5 µM

Q: What does the source list for `Cc1cc(N2CCN(C)CC2)cc2nc(-c3nc4cc(N5CCN(C)CC5)cc(C)c4[nH]3)[nH]c12`?
A: IC50 [1]: ≤ 5 µM; IC50 [2]: > 25 µM; IC50 [3]: 10 to 15 µM

Q: With `CN1CCN(c2ccc3nc(-c4ccc(O)c(O)c4O)[nH]c3c2)CC1` as the molecule, how does the IC50 [1] read?
A: ≤ 5 µM

Q: What about the IC50 [2] of the same molecule?
A: 10 to 15 µM

Q: What about the IC50 [3] of the same molecule?
A: 10 to 15 µM

Q: For `CN1CCN(c2ccc(NC(=O)c3ccc4nc(-c5ccc6ccccc6c5O)[nH]c4c3)cc2)CC1`, which IC50 [1] is on record?
A: ≤ 5 µM

Q: What about the IC50 [2] of the same molecule?
A: 10 to 15 µM

Q: And the IC50 [3]?
A: 5 to 10 µM

Q: Which IC50 [1] does the source give for `COc1ccc2c(c1)CCc1cnc(-n3cc(C(=O)NCc4nc5ccccc5[nH]4)c(N)n3)nc1-2` here?
A: ≤ 5 µM

Q: And the IC50 [2]?
A: 5 to 10 µM

Q: And the IC50 [3]?
A: 5 to 10 µM

Q: For `CCN(CC)CCOc1ccc(NC(=O)c2cn(-c3ncc4c(n3)-c3ccccc3OC4)nc2N)cc1`, which IC50 [1] is on record?
A: ≤ 5 µM

Q: And the IC50 [3]?
A: > 25 µM

Q: Which results are given for `COc1ccc2c(c1)CCc1cnc(-n3cc(C(=O)Nc4ccc(CCN5CCN6CCC[C@H]6C5)cc4)c(N)n3)nc1-2`?
A: IC50 [1]: ≤ 5 µM; IC50 [2]: 10 to 15 µM; IC50 [3]: 5 to 10 µM

Q: How did the IC50 [1] turn out when `COc1ncccc1-c1ccc(O)c(-c2nc3ccc(C(=O)Nc4ccc(CCN5CCN(C)CC5)cc4)cc3[nH]2)c1` was run?
A: ≤ 5 µM

Q: And the IC50 [2]?
A: 5 to 10 µM

Q: And the IC50 [3]?
A: ≤ 5 µM

Q: Which IC50 [1] does the source give for `CC1CCN(CCc2ccc(NC(=O)c3cn(-c4cccc(-c5ccc(N(C)C)cc5)n4)nc3N)cc2)CC1` here?
A: ≤ 5 µM

Q: And the IC50 [2]?
A: 5 to 10 µM

Q: And the IC50 [3]?
A: 5 to 10 µM

Q: How did the IC50 [1] turn out when `COc1ccc2c(c1)CCc1cnc(-n3cc(C(=O)Nc4ccc(/C=C/CN5CCN(C)CC5)cc4)c(N)n3)nc1-2` was run?
A: ≤ 5 µM

Q: What about the IC50 [2] of the same molecule?
A: 10 to 15 µM

Q: And the IC50 [3]?
A: 5 to 10 µM

Q: `CCN1CCC2(CCN(CCc3ccc(NC(=O)c4ccc5[nH]c(-c6cc(-c7cccnc7O)ccc6O)nc5c4)cc3)C2)C1` (centres unmarked) [drawing 1786] was tested. Which IC50 [1] did it give?
A: ≤ 5 µM

Q: And the IC50 [2]?
A: 5 to 10 µM

Q: And the IC50 [3]?
A: ≤ 5 µM
